Laboratory results as given in patent EP0848957A1, “Fas LIGAND SOLUBILIZATION INHIBITOR” (KANEBO LTD., priority 1995, dated 1997).

What was measured:
GVHD induced mouse [1] = assay: Prevention of the mortality of GVHD induced mouse; type: in vivo, CBF1 mouse; settings: splenocytes 1x10^8; after the death of all mice of the drug non-administered group; 3 weeks observation
Experimental: GVHD was introduced into CBF1 mouse in the same manner as in Test example 2, except for the numbers of the injected splenocytes, 1x10^8, and the test sample administered group was compared with the drug non-administered group and the non-treated group.
The effect of test samples was evaluated by the mortality of mouse for 3 weeks after the first introduction of the splenocytes.

GVHD induced mouse [2] = assay: Recovery test of GVHD induced mouse; type: in vivo, CBF1 mice; settings: 2mg / mouse / day subcutaneously every day for 2 weeks
Experimental: CBF1 mice (F1 mice of BALB/c and C57BL/6) were injected with splenocytes (5x10^7) of C57BL/6 mouse, and a week later were again injected with splenocytes 5x10^7 to induce GVHD into a mouse.
A test sample was suspended in 0.5% CMC solution (test sample 10mg vs the CMC solution 1ml), 2mg of the test sample / mouse / day was subcutaneously administered every day for 2 weeks beginning from injection of splenocytes to the above GVHD induced mice, and this group was compared with the GVHD induced group in which any test sample was not administered (no drug administered group) and the GVHD non-induced group (non-treated group).
The body weight of mice (g) was measured every week a week later after the first injection of splenocytes, for 6 weeks, and the total IgE amount (ng/ml) was measured every week a week later after the first injection of splenocytes, for 9 weeks, and the degree of GVHD was evaluated by change of day.

[3] = test system: hFas L/BHK-21 (BHK-21 cells in which human Fas L cDNA was transfected); assay: Test for inhibition of Fas L solubilization (sFas L in culture supernatant by sandwich-ELISA); type: cell-based; settings: for inhibition at 5 µM: Homo sapiens, BHK-21, 24 h, incubated 24 hours at 37°C, read-out: aFas L secretion inhibition rate (%); for IC50: BHK-21, sFas L secretion inhibition at 5, 2.5, 1.25, 0.625 µM, probit method
Experimental: hFas L/BHK-21 (BHK-21 cells in which human Fas L cDNA was transfected)(3.5 x 10^5) was suspended in 1ml of RPMI 1640 culture medium containing 10% fetal bovine serum, and in 24 wells culture plate (Falcon 3047, Becton Dickenson Co., Ltd.) each test sample adjusted with RPMI 1640 containing 10% fetal bovine serum at the final concentration 5, 2.5, 1.25, and 0.625 µM was incubated under 5% carbon dioxide atmosphere at 37°C for 24 hours, to obtain a culture supernatant.
The concentration of sFas L in the supernatant thus obtained was quantitatively analyzed by the sandwich-ELISA method as shown below.
The concentration of anti Fas L antibody (NOK3)(see preparation 17) was adjusted to 10µg/ml with 0.05M sodium carbonate-sodium hydrogen carbonate buffer solution (pH 9.6), and each 50µl thereof was poured in each well of a 96-wells microplate (Immunolon 2, Dinatech Co., Ltd.) and left it overnight at 4°C to make the solid phase. Each well was washed twice with 300 µl of a washing solution consisting of a physiological saline solution adjusted at pH 7.4 with a phosphate buffer solution, containing 0.05% of Tween 20 (polyoxyethylene sorbitan monolaurate)(abbreviated as T-PBS), and then to it was added 300µl of PBS (pH 7.4) containing bovine serum albumin (abbreviated as BSA, Wako Chemical Co., Ltd), and it was left for 2 hours at 37°C to remove the supernatant.
Then, the culture supernatant (50µl) containing a test sample were added to each well, and incubated for one hour at room temperature. After incubation, each well was washed twice with 300µl of T-PBS (pH7.4).
The concentration of anti Fas L antibody (NOK1) labeled with biotin (see preparation 18) was adjusted to 5µg/ml by diluting with PBS (pH 7.4) containing 1% BSA, and 50µl thereof was added to the solution prepared above. The solution was reacted for one hour at room temperature, and washed twice with 300µl of T-PBS (pH 7.4).
And then, streptoavidin-peroxidase (Amasham Lab.) was diluted 1000 times with PBS (pH 7.4) containing 1% of BSA, and 50µl thereof was added to it. The solution was incubated for 30 minutes at room temparature and was washed twice with 300µ of T-PBS (pH 7.4).
Further, 100µl of 0.15M citric acid-sodium phosphate buffer solution (pH 5.0) containing hydrogen peroxide and o-phenylenediamine (former concentration:0.015 w/v%, latter concentration:0.2mg/ml) was added to each well and incubated for 10 minutes at room temperature.
After incubation, 50µl of 2 N sulfuric acid was added to each well to quench the reaction, and the absorbance at 490 nm was measured by Softmax (Molecular Device Co., Ltd.)
On the other hand, by measuring the absorbance of the sFas L solution of which the concentration was known, as a sample instead of the culture supernatant, the calibration curve was detected based on 4-logistic parameter analysis, and based on it the concentration (X) of sFas L in the culture supernatant was calculated.
As a control, by using the concentration (A) of sFas L in the culture supernatant in case that the test sample was not added, based on the concentration (X) of sFas L in the culture supernatant in case that the sample was added, sFas secretion inhibition rate (%) at 5µM was calculated by using the following formula sFas L secretion inhibition rate (%) = (1-X/A) x 100 [formula]

[4] = Toxicity after oral administration (mortality); type: in vivo; settings: 3,000mg/kg:body weight, orally administered
Experimental: And a compound of the generic formula (I) or its pharmaceutically acceptable salt was low in toxicity. For example, when compound 4a ( 3,000mg/kg:body weight) was orally administered, the mortality was not found. Therefore, a compound of the generic formula (I) or its pharmaceutically acceptable salt is useful for preventing and treating the diseases in which apoptosis caused by binding the solubilized Fas L with Fas is considered to participate, for example, fulminant hepatitis, GVHD, AIDS, autoimmune diseases, etc.

Row | SMILES | inhibition at 5 µM [3] [%] | IC50 [3] [nM] | also measured
1 | CNC(=O)[C@@H](NC(=O)[C@H](CC(C)C)[C@H](C)C(=O)NO)c1ccccc1 [Test sample E, [4-(N-hydroxyamino)-2(R)-isobutyl-3(S)-methylsuccinyl]-L-phenylglycine-N-methylamide] | 29 | – | survival rate (GVHD induced mouse [1]): 90%; decrease of body weight caused by the induced GVHD (GVHD induced mouse [2]; body weight measured weekly for 6 weeks): clearly prohibited; increase of total IgE amount caused by the induced GVHD (GVHD induced mouse [2]; total IgE measured weekly for 9 weeks): clearly prohibited; mortality [4]: not found
2 | CNC(=O)[C@H](Cc1cccc2c1CCCC2)NC(=O)[C@H](CC(C)C)C(C)C(=O)NO (stereo partly drawn) [Test sample H, [4-(N-hydroxyamino)-2(R)-isobutyl-3-methylsuccinyl]-L-3-(5,6,7,8-tetrahydro-1-naphthyl)alanine-N-methylamide] | 57 | – | –
3 | CNC(=O)[C@H](Cc1cccc2ccccc12)NC(=O)[C@H](CC(C)C)C(C)C(=O)NO (stereo partly drawn) [Test sample I, [4-(N-hydroxyamino)-2(R)-isobutyl-3-methylsuccinyl]-L-3-(1-naphthyl)alanine-N-methylamide] | 50 | – | –
4 | CNC(=O)[C@H](Cc1ccccc1)NC(=O)[C@H](CC(C)C)[C@H](CSc1ccccc1)C(=O)NO [Test sample B, [4-(N-hydroxyamino)-2(R)-isobutyl-3(S)-phenylthiomethylsuccinyl]-L-phenylalanine-N-methylamide] | > 70 | 2200 | –
5 | CNC(=O)[C@@H](NC(=O)[C@@H](CC(=O)NO)CC(C)C)c1ccc2ccccc2c1 [Test sample F, [4-(N-hydroxyamino)-2(R)-isobutylsuccinyl]-L-2-naphthylglycine-N-methylamide] | 35 | – | –
6 | CNC(=O)[C@H](Cc1ccc(OC)cc1)NC(=O)[C@H](CC(C)C)[C@H](C)C(=O)NO [Test sample C, [4-(N-hydroxyamino)-2(R)-isobutyl-3(S)-methylsuccinyl]-L-O-methyltyrosine-N-methylamide] | > 70 | 1500 | –
7 | CNC(=O)[C@H](Cc1ccc(OC)cc1)NC(=O)[C@@H](CC(=O)NO)CC(C)C [Test sample A, [4-(N-hydroxyamino)-2(R)-isobutylsuccinyl]-L-O-methyltyrosine-N-methylamide] | 47 | – | –
8 | CNC(=O)[C@H](Cc1ccccc1)NC(=O)[C@H](CC(C)C)[C@H](CSc1cccs1)C(=O)NO [Test sample D, [4-(N-hydroxyamino)-2(R)-isobutyl-3(S)-(2-thienylthiomethyl)succinyl]-L-phenylalanine-N-methylamide] | > 70 | 1600 | –
9 | NS(=O)(=O)c1ccc(CCNC(=O)[C@H](CC2CCCCC2)NC(=O)[C@H](CCCc2ccccc2)CC(=O)NO)cc1 [Test sample G, [4-(N-hydroxyamino)-2(R)-(3-phenylpropyl)succinyl]-L-3-cyclohexylalanine-N-[2-(4-sulfonylamidophenyl)ethyl]amide] | > 70 | 1100 | –
